Where two headings read alike, the source gives them in different places.
Tests used:
[1] = test system: HBV; test: Anti-HBV activity assay: HBV-DNA replication in HepG2.2.15 cells, fluorescent quantitation PCR of culture supernatant; type: cell-based, Hepatitis B Virus; settings: for IC50: HBV-DNA in supernatant on the eighth day, read-out: IC50 (concentration at which 50% of the replication of HBV was inhibited); for SI (bioactivity selective index): anti-HBV
Protocol: (§1) The anti-HBV activity assay of a specimen compound was performed in HepG2.2.15 cells stably transformed with the whole genome of HBV, including the determination of the cytotoxicity of the specimen compound (CC50) and the effect of the specimen compound on the replication level of HBV-DNA (IC50).
(§2) The Human hepatoma carcinoma cell HepG2.2.15 cell line stably transformed with the whole genome of HBV can stably secrete hepatitis B virosomes (containing DNA) in the supernatant of culture during culture. Both the antiviral activity and the cytotoxicity of the specimen drugs may be determined by detecting the amount of virus DNA secreted into the supernatant of culture by the cells under the intervention of an antiviral drug, in reference to the amount in control group that is the absence of the antiviral drug. A real-time fluorescent quantitation PCR assay was adopted to determine the concentration of a specimen drug at which 50% of the replication of HBV-DNA was inhibited (IC50), and a MTT assay was adopted to determine the concentration of a specimen drug at which 50% cytotoxicity occurs (CC50).
The specimen drug was prepared into a solution having a concentration (400 μM) desired for the experiment before use. Six diluted concentrations were tested for each specimen drug. The clinical anti-hepatitis B virus drug Lamivudine was used as the positive control in experiment so as to determine whether the reaction is normal or not in each experiment.
(§3) HepG2.2.15 cells were inoculated on a 96-well plate at 5×10^5 cells/ml. On the second day, the specimen drug was added. After the culture medium and the specimen drug having the same concentration as above were replaced periodically, on the eighth day, the supernatant of culture was collected to be tested. To the cells on the 96-well plate, MTT (5 mg/ml) is added. 4 hours later, MTT lysis solution was added (100 μl/well). The next day, OD570 was read on a microplate reader. The cytotoxicity of the specimen drug on HepG2.2.15 cells, the influence of specimen drug on cell growth, and the concentration of specimen drug at which 50% of cells were killed (CC50) were calculated in accordance with the OD value.
A proper amount of the supernatant of culture was added into an isovolumic virus extract and mixed uniformly. The resulted mixture was boiled, and then centrifuged for 5 minutes at 10,000 rpm at room temperature. A proper amount of the obtained supernatant was used to perform PCR amplification, and meanwhile four standard samples of HBV-DNA were set up to make a standard curve. The inhibition of each specimen drug at various concentrations against the replication of HBV-DNA was calculated according to the detected replication value of the viral DNA, and then the half inhibition of the specimen drug was calculated to obtain its IC50.

[2] = Cytotoxicity on HepG2.2.15 cells (MTT assay); type: cell-based, Human; settings: human, read-out: CC50 (concentration at which 50% of cells was killed)
Protocol: as §1, §2, §3

[3] = test system: HCV (J399E); test: microbe, parasite or virus in culture; type: cell-based, Hepatitis C Virus; settings: for IC50: Hepatitis C virus, Huh-7.5.1, 72 h, read-out: IC50 (concentration at which 50% of the replication of HCV was inhibited); for SI (bioactivity selective index): anti-HCV, Huh7.5.1 cells
Protocol: The variation of the green fluorescence intensity was recorded on a microplate reader and cytotoxicity was measured at the same time, so as to evaluate the influence of the compound on the replication activity of HCV.
Compounds to be tested were dissolved in DMSO to prepare a stock solution before the test. Upon using, the stock solution was diluted to a desired concentration with DMEM (Dulbecco's Modified Eagle Media, purchased from GibcoBRL company (Life Technologies, Grand Island, N.Y., USA)) containing 10% FBS (fetal bovine serum, purchased from Hyclone company (Logan, Utah, USA)).
Positive control: ribavirin (purchased from Sigma/Aldrich). It was dissolved in DMSO to prepare a stock solution and stored at −20° C. before use, and diluted to a desired concentration upon using.
(§4) Huh7.5.1 cells (10% FBS, DMEM) at the concentration of 10^5 cells/ml were inoculated on a 96-well plate (Costar 3904) with 100 μl per well. 24 hours later, the supernatant of culture was sucked out, and 50 μl of virus supernatant with MOI=0.1 was added. 8 hours later, 50 μl of the testing drug was added and 100 μl of culture medium was supplemented. After incubation for 72 hours, the supernatant was sucked out, and read on a fluorescent microplate reader (Ex=488 nm, Em=516 nm). Then each well was added with 20 μl of MTT (5 mg/ml) and additional 50 μl of culture medium. 4 hours later, 100 μl of MTT lysis solution was added. 6 hours later, reading was performed at a wavelength of 570 nm.

[4] = in vitro; type: cell-based; settings: human
Protocol: The anti-HCV activity assay was performed by using Huh7.5.1 cells (donated by WUHAN INSTITUTE of VIROLOGY, CHINESE ACADEMY OF SCIENCES) infected by HCV (J399E) inserted with enhanced green fluorescent protein (EGFP). The variation of the green fluorescence intensity was recorded on a microplate reader and cytotoxicity was measured at the same time, so as to evaluate the influence of the compound on the replication activity of HCV.
as §4

[5] = In vivo pharmacokinetic studies in rats (intragastric and intravenous); parameters: species or system SD rats; settings: rat; for bioavailability: plasma, po, male SD rats, 20 mg/kg intragastric, dosage normalized, calculated according to AUC0-t
Protocol: (§5) Intragastric Administration Three healthy male SD rats having body weights of 200 g to 250 g were administered with a specimen drug with a dosage of 20 mg/kg and a volume of 10 ml/kg. The rats were fasted for 12 hours before administration and had the freedom to drink water. The venous blood with a volume of 0.3 ml was obtained from the retrobulbar venous plexus of the rats at 0.25 h, 0.5 h, 1.0 h, 2.0 h, 3.0 h, 4.0 h, 5.0 h, 7.0 h, 9.0 h and 24 h after the administration, put in a heparinized tube, and centrifuged for 10 minutes at 3500 rpm to separate the plasma, which was stored at −20° C. to be tested.
as §5, with “Intravenous Injection: Three healthy” for “Intragastric Administration Three healthy”, “dosage of 10 mg/kg and” for “dosage of 20 mg/kg and”, “volume of 5.0 ml/kg. The” for “volume of 10 ml/kg. The”, “rats at 5 min, 15 min, 0.5 h,” for “rats at 0.25 h, 0.5 h,”, “heparinized tube, centrifuged for” for “heparinized tube, and centrifuged for”

[6] = test system: HepG2.2.15 cells; test: Cytotoxicity on HepG2.2.15 cells (MTT assay); type: cell-based, Human; settings: read-out: CC50 (concentration at which 50% of cells was killed)
Protocol: as §1, §2, §3

SMILES	IC50 ([1]; Hepatitis B virus)	SI (bioactivity selective index) [1]	CC50 at 6 days [2]	IC50 [3]	SI (bioactivity selective index) [3]	CC50 at 72 h [4]	bioavailability [5]	IC50 [1]	CC50 [6]	average oral bioavailability ([5]; in vivo, 10 mg/kg)
CC(C)=Cc1sc(-c2nccs2)nc1C(=O)NCc1ccc(F)cc1 [Compound 373, N-(p-fluorobenzyl)-5-[1-(2-methylpropenyl)]-2′,2-bisthiazole-4-formamide]	0.9 µM	>111.1	> 100 µM	5.7 µM	14.9	85 µM	6.9%	–	–	–
C/C(=C\c1sc(-c2nccs2)nc1C(=O)NCc1ccc(F)cc1)CO [Compound 389, N-(p-fluorobenzyl)-5-[1-(3-hydroxy-2-methylpropenyl)]-2′,2-bisthiazole-4-formamide]	30.2 µM	>3.3	> 100 µM	6.6 µM	11.6	76.5 µM	–	–	–	–
CC(C)C(O)c1sc(-c2nccs2)nc1C(=O)NCc1ccc(F)cc1 (centres unmarked) [Compound 391-1, N-(p-fluorobenzyl)-5-(1-hydroxy-2-methylpropyl)-2′,2-bisthiazole-4-formamide]	1.63 µM	20.9	34 µM	10.2 µM	4.8	48.6 µM	–	–	–	–
CC(C)(O)Cc1sc(-c2nccs2)nc1C(=O)NCc1ccc(F)cc1 [Compound 391-2, N-(p-fluorobenzyl)-5-(2-hydroxy-2-methylpropyl)-2′,2-bisthiazole-4-formamide]	5.4 µM	>18.5	> 100 µM	21.3 µM	6.3	134 µM	76.5%	–	–	–
CC(CO)Cc1sc(-c2nccs2)nc1C(=O)NCc1ccc(F)cc1 (centres unmarked) [Compound 391-3, N-(p-fluorobenzyl)-5-(3-hydroxy-2-methylpropyl)-2′,2-bisthiazole-4-formamide]	< 0.41 µM	>243.9	> 100 µM	9.9 µM	2.8	28.1 µM	–	–	–	–
C/C(=C\c1sc(-c2nccs2)nc1C(=O)NCc1ccc(F)cc1)CF [Compound 391-F, N-(p-fluorobenzyl)-5-[1-(2-fluoromethylpropenyl)]-2′,2-bisthiazole-4-formamide]	12.5 µM	>8	> 100 µM	6.5 µM	13.0	84.7 µM	–	–	–	–
CC(C)C(F)c1sc(-c2nccs2)nc1C(=O)NCc1ccc(F)cc1 (centres unmarked) [Compound 393-1, N-(p-fluorobenzyl)-5-(1-fluoro-2-methylpropyl)-2′,2-bisthiazole-4-formamide]	< 0.41 µM	>81	> 33.3 µM	7.4 µM	5.5	40.9 µM	–	–	–	–
CC(C)(F)Cc1sc(-c2nccs2)nc1C(=O)NCc1ccc(F)cc1 [Compound 393-2, N-(p-fluorobenzyl)-5-(2-fluoro-2-methylpropyl)-2′,2-bisthiazole-4-formamide]	0.41 to 33.3 µM	<81	> 33.3 µM	1.5 µM	>22.2	> 33.3 µM	–	–	–	–
COC(c1sc(-c2nccs2)nc1C(=O)NCc1ccc(F)cc1)C(C)C (centres unmarked) [Compound 405-1, N-(p-fluorobenzyl)-5-(1-methoxy-2-methylpropyl)-2′,2-bisthiazole-4-formamide]	2.6 µM	>12.8	> 33.3 µM	3.7 µM	5.8	21.4 µM	–	–	–	–
CC(C)Cc1sc(-c2nccs2)nc1C(=O)NCc1ccc(F)cc1 [Compound W28F, N-parafluorobenzyl-5-isobutyl-2′,2-bithiazole-4-formamide, reference compound]	–	–	–	–	–	–	–	2.6 µM	> 33.3 µM	2.80%
Nc1ccn([C@@H]2CS[C@H](CO)O2)c(=O)n1 [Lamivudine, reference compound]	< 0.16 µM	>32	> 5 µM	–	–	–	–	–	–	–
CC(C)=Cc1sc(-c2ncc(C)s2)nc1C(=O)NCc1ccc(F)cc1 [Me-373, N-(p-fluorobenzyl)-5′-methyl-5-[1-(2-methylpropenyl)]-2′,2-bisthiazole-4-formamide]	1.1 µM	>90.9	> 100 µM	17.4 µM	3.8	66.6 µM	–	–	–	–
Cc1cnc(-c2nc(C(=O)NCc3ccc(F)cc3)c(C(O)C(C)C)s2)s1 (centres unmarked) [Me-391-1, N-(p-fluorobenzyl)-5′-methyl-5-(1-hydroxy-2-methylpropyl)-2′,2-bisthiazole-4-formamide]	2.9 µM	>11.5	> 33.3 µM	3.7 µM	>9	> 33.3 µM	–	–	–	–
Cc1cnc(-c2nc(C(=O)NCc3ccc(F)cc3)c(C(F)C(C)C)s2)s1 (centres unmarked) [Me-393-1, N-(p-fluorobenzyl)-5′-methyl-5-(1-fluoro-2-methylpropyl)-2′,2-bisthiazole-4-formamide]	0.2 µM	>500	> 100 µM	6.6 µM	>15.2	> 100 µM	–	–	–	–
NC(=O)c1ncn([C@@H]2O[C@H](CO)[C@@H](O)[C@H]2O)n1 [Ribavirin, ribavirin, reference compound]	–	–	–	72.4 µM	>2.8	> 200 µM	–	–	–	–

— patent US8426606B2, “2′,2-bisthiazole non-nucleoside compounds, preparation methods, pharmaceutical compositions and uses as hepatitis virus inhibitors thereof” (Shanghai Institute of Materia Medica, Chinese Academy of …, priority 2010, dated 2013)
